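48-hour exposure; five concentrations; linearly interpolated endpoints. Abbreviation: GI50, concentration required for 50% inhibition of growth.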 Calls of active or inactive are those of the source. Rule as the data show it: active = GI50 up to about 1.1 µM and inactive = higher.
How the values were obtained:
Assay in all cases: inhibition of tumour cell growth, NCI panel, 48 h
CCRF-CEM = system: CCRF-CEM
SNB-19 = system: SNB-19
DMS-114 = system: DMS-114
HOP-62 = system: HOP-62
UACC-62 = system: UACC-62
DMS-273 = system: DMS-273
786-0 = system: 786-0
UO-31 = system: UO-31
KM-20L2 = system: KM-20L2
SNB-75 = system: SNB-75
SF-268 = system: SF-268
OVCAR-8 = system: OVCAR-8
HOP-92 = system: HOP-92
NCI-H460 = system: NCI-H460
HCT-116 = system: HCT-116
SNB-78 = system: SNB-78
EKVX = system: EKVX
DLD-1 = system: DLD-1
TK-10 = system: TK-10
K562 = system: K562
IGROV-1 = system: IGROV-1
NCI-H23 = system: NCI-H23
Malme-3M = system: Malme-3M
SK-MEL-28 = system: SK-MEL-28
M14 = system: M14
HCC 2998 = system: HCC 2998
HL-60 = system: HL-60
CAKI-1 = system: CAKI-1
NCI-H226 = system: NCI-H226
SF-539 = system: SF-539
A498 = system: A498
HOP-18 = system: HOP-18
RPMI-8226 = system: RPMI-8226
MOLT-4 = system: MOLT-4
SN12C = system: SN12C
HCT-15 = system: HCT-15
A549 = system: A549
KM12 = system: KM12
LXFL 529 = system: LXFL 529
M19-MEL = system: M19-MEL
SK-OV-3 = system: SK-OV-3
OVCAR-5 = system: OVCAR-5
HT-29 = system: HT-29
SW-620 = system: SW-620
OVCAR-3 = system: OVCAR-3
COLO 205 = system: COLO 205
UACC-257 = system: UACC-257
U-251 = system: U-251
SK-MEL-5 = system: SK-MEL-5
SF-295 = system: SF-295
ACHN = system: ACHN
OVCAR-4 = system: OVCAR-4
LOX IMVI = system: LOX IMVI
SR = system: SR
SK-MEL-2 = system: SK-MEL-2
NCI-H522 = system: NCI-H522

Question: `COc1ccccc1NC(=O)C1=C(C)NC(C)=C(C(=O)Nc2ccccc2OC)C1C1=CC=COC1` was tested. Which GI50 (CCRF-CEM) did it give?
Answer: 7.87 µM (inactive)

Question: What about the GI50 (SNB-19) of the same molecule?
Answer: 19.1 µM (inactive)

Question: And the GI50 (DMS-114)?
Answer: 7.24 µM (inactive)

Question: What about the GI50 (HOP-62) of the same molecule?
Answer: 27.5 µM (inactive)

Question: What about the GI50 (UACC-62) of the same molecule?
Answer: 3.3 µM (inactive)

Question: What about the GI50 (DMS-273) of the same molecule?
Answer: 6.81 µM (inactive)

Question: And the GI50 (786-0)?
Answer: 11.5 µM (inactive)

Question: And the GI50 (UO-31)?
Answer: 25.9 µM (inactive)

Question: And the GI50 (KM-20L2)?
Answer: 6.07 µM (inactive)

Question: What about the GI50 (SNB-75) of the same molecule?
Answer: 23 µM (inactive)

Question: What about the GI50 (SF-268) of the same molecule?
Answer: 13.6 µM (inactive)

Question: What about the GI50 (OVCAR-8) of the same molecule?
Answer: 14.6 µM (inactive)

Question: What about the GI50 (HOP-92) of the same molecule?
Answer: 25.9 µM (inactive)

Question: And the GI50 (NCI-H460)?
Answer: 3.92 µM (inactive)

Question: What about the GI50 (HCT-116) of the same molecule?
Answer: 4.53 µM (inactive)

Question: What about the GI50 (SNB-78) of the same molecule?
Answer: 23.3 µM (inactive)

Question: And the GI50 (EKVX)?
Answer: 10.8 µM (inactive)

Question: What about the GI50 (DLD-1) of the same molecule?
Answer: 11.5 µM (inactive)

Question: And the GI50 (TK-10)?
Answer: 16.5 µM (inactive)

Question: What about the GI50 (K562) of the same molecule?
Answer: 3.78 µM (inactive)

Question: What about the GI50 (IGROV-1) of the same molecule?
Answer: 10.8 µM (inactive)

Question: What about the GI50 (NCI-H23) of the same molecule?
Answer: 23.9 µM (inactive)

Question: And the GI50 (Malme-3M)?
Answer: 5.68 µM (inactive)

Question: What about the GI50 (SK-MEL-28) of the same molecule?
Answer: 18.8 µM (inactive)

Question: And the GI50 (M14)?
Answer: 5.2 µM (inactive)

Question: What about the GI50 (HCC 2998) of the same molecule?
Answer: 12.3 µM (inactive)

Question: And the GI50 (HL-60)?
Answer: 3.94 µM (inactive)

Question: And the GI50 (CAKI-1)?
Answer: 4.65 µM (inactive)

Question: And the GI50 (NCI-H226)?
Answer: > 100 µM (inactive)

Question: And the GI50 (SF-539)?
Answer: 12.2 µM (inactive)

Question: What about the GI50 (A498) of the same molecule?
Answer: 6.17 µM (inactive)

Question: And the GI50 (HOP-18)?
Answer: 28.5 µM (inactive)

Question: And the GI50 (RPMI-8226)?
Answer: 13.2 µM (inactive)

Question: What about the GI50 (MOLT-4) of the same molecule?
Answer: 13.3 µM (inactive)

Question: What about the GI50 (SN12C) of the same molecule?
Answer: 60.7 µM (inactive)

Question: And the GI50 (HCT-15)?
Answer: 4.59 µM

Question: What about the GI50 (A549) of the same molecule?
Answer: 18.5 µM (inactive)

Question: And the GI50 (KM12)?
Answer: 9.14 µM (inactive)

Question: What about the GI50 (LXFL 529) of the same molecule?
Answer: 11.1 µM (inactive)

Question: And the GI50 (M19-MEL)?
Answer: 8.97 µM (inactive)

Question: What about the GI50 (SK-OV-3) of the same molecule?
Answer: 10.4 µM (inactive)

Question: And the GI50 (OVCAR-5)?
Answer: 36.4 µM (inactive)

Question: What about the GI50 (HT-29) of the same molecule?
Answer: 4.46 µM (inactive)

Question: What about the GI50 (SW-620) of the same molecule?
Answer: 6.7 µM (inactive)

Question: And the GI50 (OVCAR-3)?
Answer: 3.11 µM (inactive)

Question: And the GI50 (COLO 205)?
Answer: 57 µM (inactive)

Question: What about the GI50 (UACC-257) of the same molecule?
Answer: 13.6 µM (inactive)

Question: What about the GI50 (U-251) of the same molecule?
Answer: 9.71 µM (inactive)

Question: And the GI50 (SK-MEL-5)?
Answer: 5.06 µM (inactive)

Question: What about the GI50 (SF-295) of the same molecule?
Answer: 6.73 µM (inactive)

Question: And the GI50 (ACHN)?
Answer: 9.23 µM (inactive)

Question: What about the GI50 (OVCAR-4) of the same molecule?
Answer: 30.5 µM (inactive)

Question: For `C[C@H]1C[C@@H]2[C@H]([C@@H](O)C[C@@]3(C)[C@H]2CC[C@]3(O)C(=O)CO)[C@@]2(C)C=CC(=O)C=C12` [METHYLPREDNISOLONE], which GI50 (CCRF-CEM) is on record?
Answer: 0.0429 µM (active)

Question: What about the GI50 (DMS-114) of the same molecule?
Answer: > 100 µM (inactive)

Question: What about the GI50 (HOP-62) of the same molecule?
Answer: > 100 µM (inactive)

Question: And the GI50 (UACC-62)?
Answer: > 100 µM (inactive)

Question: And the GI50 (DMS-273)?
Answer: > 100 µM (inactive)

Question: What about the GI50 (786-0) of the same molecule?
Answer: > 100 µM (inactive)

Question: What about the GI50 (UO-31) of the same molecule?
Answer: > 100 µM (inactive)

Question: And the GI50 (KM-20L2)?
Answer: > 100 µM (inactive)

Question: What about the GI50 (OVCAR-8) of the same molecule?
Answer: > 100 µM (inactive)

Question: And the GI50 (HOP-92)?
Answer: > 100 µM (inactive)

Question: What about the GI50 (NCI-H460) of the same molecule?
Answer: > 100 µM (inactive)

Question: And the GI50 (HCT-116)?
Answer: > 100 µM (inactive)

Question: What about the GI50 (DLD-1) of the same molecule?
Answer: > 100 µM (inactive)

Question: And the GI50 (LOX IMVI)?
Answer: > 100 µM (inactive)

Question: What about the GI50 (TK-10) of the same molecule?
Answer: > 100 µM (inactive)

Question: What about the GI50 (K562) of the same molecule?
Answer: > 100 µM (inactive)

Question: And the GI50 (IGROV-1)?
Answer: > 100 µM (inactive)

Question: What about the GI50 (NCI-H23) of the same molecule?
Answer: > 100 µM (inactive)

Question: And the GI50 (Malme-3M)?
Answer: > 100 µM (inactive)

Question: And the GI50 (SK-MEL-28)?
Answer: > 100 µM (inactive)

Question: And the GI50 (M14)?
Answer: > 100 µM (inactive)

Question: What about the GI50 (HCC 2998) of the same molecule?
Answer: > 100 µM (inactive)

Question: And the GI50 (SR)?
Answer: > 100 µM (inactive)

Question: What about the GI50 (HL-60) of the same molecule?
Answer: > 100 µM (inactive)

Question: What about the GI50 (CAKI-1) of the same molecule?
Answer: > 100 µM (inactive)

Question: And the GI50 (NCI-H226)?
Answer: > 100 µM (inactive)

Question: What about the GI50 (A498) of the same molecule?
Answer: > 100 µM (inactive)

Question: What about the GI50 (HOP-18) of the same molecule?
Answer: > 100 µM (inactive)

Question: What about the GI50 (RPMI-8226) of the same molecule?
Answer: > 100 µM (inactive)

Question: What about the GI50 (MOLT-4) of the same molecule?
Answer: > 100 µM (inactive)

Question: And the GI50 (SN12C)?
Answer: 46.6 µM (inactive)

Question: And the GI50 (HCT-15)?
Answer: > 100 µM

Question: And the GI50 (A549)?
Answer: > 100 µM (inactive)

Question: What about the GI50 (KM12) of the same molecule?
Answer: > 100 µM (inactive)

Question: What about the GI50 (M19-MEL) of the same molecule?
Answer: > 100 µM (inactive)

Question: What about the GI50 (SK-OV-3) of the same molecule?
Answer: > 100 µM (inactive)

Question: And the GI50 (OVCAR-5)?
Answer: > 100 µM (inactive)

Question: And the GI50 (HT-29)?
Answer: > 100 µM (inactive)

Question: What about the GI50 (SK-MEL-2) of the same molecule?
Answer: > 100 µM (inactive)

Question: What about the GI50 (SW-620) of the same molecule?
Answer: > 100 µM (inactive)

Question: And the GI50 (OVCAR-3)?
Answer: > 100 µM (inactive)

Question: What about the GI50 (COLO 205) of the same molecule?
Answer: > 100 µM (inactive)

Question: What about the GI50 (UACC-257) of the same molecule?
Answer: > 100 µM (inactive)

Question: What about the GI50 (SK-MEL-5) of the same molecule?
Answer: > 100 µM (inactive)

Question: What about the GI50 (ACHN) of the same molecule?
Answer: > 100 µM (inactive)

Question: What about the GI50 (NCI-H522) of the same molecule?
Answer: > 100 µM (inactive)

Question: What about the GI50 (OVCAR-4) of the same molecule?
Answer: > 100 µM (inactive)

From ChEMBL document CHEMBL1201862, “PubChem BioAssay data set” (2004)
